Assay results taken from publication PMC9495854, “Novel Phenothiazine/Donepezil-like Hybrids Endowed with Antioxidant Activity for a Multi-Target Approach to the Therapy of Alzheimer’s Disease” (Antioxidants, 2022).

Columns and labels:
[1] = target: T1, Aβ1-40 aggregation (Homo sapiens, UniProt P05067); assay: Inhibition of Aβ40 aggregation, ThT fluorescence; format: biochemical; settings: inhibitor 10 µM, Aβ40 30 µM, PBS pH 7.4, 2% HFIP, 2 h 25 °C; mean ± SEM
T1 construct: purchased EZBiolab
Description: ThT fluorescence in the presence of Aβ was measured for each compound according a previously described procedure. The samples were co-incubated and mixed in 96-well black, non-binding microplates (Greiner Bio-One GmbH, Frickenhausen, Germany), incubating Aβ40 (EZBiolab, Carmel, IN, USA) at a final concentration of 30 µM with each inhibitors at a final concentration of 10 µM in PBS (pH 7.4) containing 2% 1,1,1,3,3,3-hexafluoro-2-propanol (HFIP). After 2 h at 25 °C, a 25 µM ThT solution was added and fluorescence was determined using the multi-plate reader Tecan Infinite M1000 Pro (Tecan, Cernusco S.N., Italy). The results are reported as mean of three independent experiments ± SEM [13].

[2] = target: T2, FAAH Human recombinant (Homo sapiens, UniProt O00519); assay: FAAH inhibition, fluorometric assay; format: biochemical; settings: mean ± SEM; read-out: hFAAH (IC50)
T2 construct: purchased Cayman Chemical
T2 sequence (O00519 1-579): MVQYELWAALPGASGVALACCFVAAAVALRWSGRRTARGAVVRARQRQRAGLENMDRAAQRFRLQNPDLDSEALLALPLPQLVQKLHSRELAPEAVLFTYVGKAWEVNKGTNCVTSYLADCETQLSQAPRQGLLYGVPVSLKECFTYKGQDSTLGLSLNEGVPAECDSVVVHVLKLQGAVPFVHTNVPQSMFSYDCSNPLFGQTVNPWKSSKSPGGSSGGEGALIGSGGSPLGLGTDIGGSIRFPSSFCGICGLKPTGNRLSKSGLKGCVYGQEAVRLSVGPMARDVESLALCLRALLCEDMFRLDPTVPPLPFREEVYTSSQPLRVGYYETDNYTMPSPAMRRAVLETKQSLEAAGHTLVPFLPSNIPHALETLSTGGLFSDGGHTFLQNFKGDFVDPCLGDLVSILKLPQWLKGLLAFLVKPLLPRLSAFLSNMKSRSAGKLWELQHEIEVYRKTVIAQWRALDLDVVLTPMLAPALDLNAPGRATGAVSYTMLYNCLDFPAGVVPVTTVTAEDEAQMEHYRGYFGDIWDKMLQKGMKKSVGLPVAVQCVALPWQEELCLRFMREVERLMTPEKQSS
Description: The fatty acid amide hydrolase inhibition was measured for the final compounds using 96-well black flat-bottom microtiter NBS plates (COSTAR flat black). The total volume was 150 µL: the single hybrid was pre-incubated at different concentrations with the enzyme (FAAH Human recombinant, Cayman Chemical, Ann Arbor, MI, USA) in the specific fluorometric assay buffer (tris-HCl 125 mM, Na2EDTA · 2H2O 1 mM, pH = 9.0) for ten minutes at RT, using an orbital shaker. A 50 μL solution of the substrate (7-amino-4-methyl-2H-1-benzopyran-2-one-5Z,8Z,11Z,14Z-eicosatetraen-amide, at a final concentration of 5 µM) was then added. The plates were then incubated for 1 h at 37 °C in a Tecan Infinite M1000 Pro (Tecan, Cernusco S.N., Italy), reading fluorescence values from each well every 30s (λex = 340 nm, λem = 450 nm). The inhibitor activity was expressed as relative fluorescence units (RFU), using the values obtained from control wells lacking the inhibitor and blank wells lacking both inhibitor and enzyme to calculate percent inhibition values for each well. IC50 values are expressed as mean ± SEM of at least two independent measurements performed in triplicate.

[3] = tested on: SH-SY5Y cells; assay: DCFH-DA cell-based antioxidant assay (H2O2-induced oxidation), SH-SY5Y; settings: Homo sapiens, SHSY-5Y, 1 h compound, 100 μM H2O2, read-out: DCFDH-DA IC50 ± SEM SHSY-5Y
Description: HepG2 cells were cultured in Eagle’s Minimum Essential Medium (MEM, Euroclone S.p.A., Pero, MI, Italy), supplemented with 10% Fetal Bovine Serum (FBS, Euroclone S.p.A., Pero, MI, Italy), 1% L-glutamine (Euroclone S.p.A., Pero, MI, Italy), 100 U/mL penicillin/streptomycin (Euroclone S.p.A., Pero, MI, Italy), 1% Non-Essential Amino Acids (NEAA, Euroclone S.p.A., Pero, MI, Italy). SH-SY5Y cells were grown in a 1:1 mixture of Dulbecco’s modified Eagle’s medium (DMEM)—high glucose (Euroclone S.p.A., Pero, MI, Italy) and Ham’s F12 Medium (Euroclone S.p.A., Pero, MI, Italy) supplemented with 10% FBS, 1% L-glutamine and 100 U/mL penicillin/streptomycin. For cell assays, cells were trypsinized using Trypsin-EDTA 1X in PBS (Euroclone S.p.A., Pero, MI, Italy).
According to a slightly modified procedure already reported in the literature, the generation of ROS was determined using an oxidation-sensitive fluorescent probe, 2′,7′-dichlorodihydrofluorescein diacetate (DCFH-DA, D6665; Sigma-Aldrich, St. Louis, MO, USA). Briefly, viable cells were seeded in a black 96-well cell culture plate (Costar, Sigma-Aldrich, St. Louis, MO, USA) and after 24 h were incubated with different concentrations (0.1–100 µM) of each compound for 1 h at 37 °C in 5% CO2. […] After washing using PBS, 100 μM H2O2 in medium without serum was added to each well and the cells were incubated for an additional 30 min. The formation of fluorescent dichlorofluorescein (DCF) due to oxidation of DCFH in the presence of ROS, was read at 530 nm using a microplate reader Tecan Infinite M1000 Pro (Tecan, Cernusco S.N., Italy) and DMSO medium was used for control cells. The results are expressed as mean ± SEM of at least three independent measurements in triplicate.

[4] = DPPH radical scavenging assay; settings: DPPH 100 µM in methanol, 30 min
Description: A previously reported method (Blois) with some modifications (Mishra, Ojha, & Chaudhury, 2012) was used to carry out the DPPH assay in 96-well microtiter plates. Each tested compound was dissolved in methanol, after which a freshly prepared solution of DPPH in methanol (100 µM final concentration) was added. Following vigorous stirring, each mixture was left in the dark for 30 min at room temperature, after which absorbance values for each well were read at 520 nm using a spectrophotometric plate reader (VICTOR^3 V multilabel plate reader, PerkinElmer). Antioxidant activity was determined as RSA% (radical scavenging activity). The value was calculated using following equation: RSA% = 100 × [(Ao − Ai)/Ao], where Ao and Ai represent DPPH absorbance in absence or in presence of antioxidant, respectively. Antiradical curves for calculating the EC50 values were obtained by testing each compound at several concentrations. Values of all parameters are expressed as mean ± SEM of at least three independent measurements in triplicate.

T1 sequence (P05067 672-711 limits assumed): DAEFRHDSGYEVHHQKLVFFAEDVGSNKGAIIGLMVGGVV

COc1cc2c(cc1OC)C(=O)C(CC1CCN(Cc3ccccc3)CC1)C2 (centres unmarked) [Donepezil]
Aβ1-40 Aggregation (I% at 10 µM) [1]: 14% ± 7

O=C(Oc1ccc([N+](=O)[O-])cc1)N1CCN(Cc2cccc(Oc3ccccc3)c2)CC1 [JZL195, reference compound]
IC50 [2]: 19 ± 3 nM

O=c1c(O)c(-c2ccc(O)c(O)c2)oc2cc(O)cc(O)c12 [Quercetin, reference compound]
IC50 [3]: 5610 ± 400 nM

O=C(O)c1cc(O)c(O)c(O)c1 [Gallic acid, reference compound]
EC50 (μmol/μmol of DPPH ± SEM) [4]: 0.059 ± 0.003 μmol/μmol of DPPH | EC50 (μmol/μmol of DPPH ± SEM) ([4]; listed as gallic acid): 0.059 μmol/μmol of DPPH
